The EC50 is the concentration that produces a half-maximal response.

Consider eleven compounds from patent publication US11554120B2, “1H-pyrazolo[4,3-d]pyrimidine compounds as toll-like receptor 7 (TLR7) agonists and methods and uses therefor” (BRISTOL-MYERS SQUIBB COMPANY, priority 2018, dated 2023).

The experiment deals with T1, human TLR7 (Homo sapiens, UniProt Q9NYK1).
T1 construct: host or cells: HEK-Blue TLR7 cells (engineered human embryonic kidney cells)
T1 sequence (Q9NYK1 27-1049): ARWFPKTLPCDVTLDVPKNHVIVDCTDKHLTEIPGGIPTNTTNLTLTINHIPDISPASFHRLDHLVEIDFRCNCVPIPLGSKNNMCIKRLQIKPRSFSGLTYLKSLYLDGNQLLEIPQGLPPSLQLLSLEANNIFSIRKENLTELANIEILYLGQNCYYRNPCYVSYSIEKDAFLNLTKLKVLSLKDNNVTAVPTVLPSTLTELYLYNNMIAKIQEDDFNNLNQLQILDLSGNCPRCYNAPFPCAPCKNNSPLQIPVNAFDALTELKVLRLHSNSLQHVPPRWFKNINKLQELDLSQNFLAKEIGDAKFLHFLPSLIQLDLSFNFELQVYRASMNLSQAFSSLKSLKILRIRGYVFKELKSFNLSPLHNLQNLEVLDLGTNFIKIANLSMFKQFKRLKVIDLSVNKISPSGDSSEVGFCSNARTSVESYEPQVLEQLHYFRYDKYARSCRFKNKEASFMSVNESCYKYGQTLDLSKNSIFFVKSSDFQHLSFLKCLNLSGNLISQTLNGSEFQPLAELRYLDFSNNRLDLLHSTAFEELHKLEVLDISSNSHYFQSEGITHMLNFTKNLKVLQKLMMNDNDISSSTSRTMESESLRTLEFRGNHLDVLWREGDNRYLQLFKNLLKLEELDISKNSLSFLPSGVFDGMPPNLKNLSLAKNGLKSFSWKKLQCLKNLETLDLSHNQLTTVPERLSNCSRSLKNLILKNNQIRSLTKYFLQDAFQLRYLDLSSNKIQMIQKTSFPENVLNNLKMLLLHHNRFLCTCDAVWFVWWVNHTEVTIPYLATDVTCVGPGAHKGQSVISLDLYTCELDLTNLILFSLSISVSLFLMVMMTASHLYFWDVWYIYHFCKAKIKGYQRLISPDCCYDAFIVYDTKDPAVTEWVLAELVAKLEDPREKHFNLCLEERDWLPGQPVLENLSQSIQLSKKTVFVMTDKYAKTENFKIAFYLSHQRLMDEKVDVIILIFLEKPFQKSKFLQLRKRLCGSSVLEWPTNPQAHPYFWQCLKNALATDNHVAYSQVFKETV
The experiment is described as follows: Human TLR7 agonist activity assay (HEK-Blue TLR7 SEAP reporter). In kind it is cell-based. To be noted: HEK-Blue TLR7 cells, 18 h treatment, in some instances average of plural assays, read-out: hTLR7 EC50.
Description: Human TLR7 Agonist Activity Assay
HEK-Blue™ TLR7 cells were added to each well of a 384-well tissue-culture plate (15,000 cells per well) and incubated 16-18 h at 37° C., 5% CO2. Compounds (100 nl) were dispensed into wells containing the HEK-Blue™ TLR cells and the treated cells were incubated at 37° C., 5% CO2. After 18 h treatment ten microliters of freshly-prepared Quanti-Blue™ reagent (Invivogen) was added to each well, incubated for 30 min (37° C., 5% CO2) and SEAP levels measured using an Envision plate reader (OD=620 nm).
`CCC[C@@H](CCO)Nc1nc(N)nc2cnn(Cc3ccc(CN4CC5CC4CN5)cc3OC)c12` (some centres unmarked) [Compound 839]: the EC50 turned out to be 242 nM.

Consider `CCCCNc1nc(N)nc2cnn(Cc3ccc(CNC4CCC4)cc3F)c12` [Compound 853], for which the EC50 was 420 nM. Turning to `CCCCNCc1ccc(Cn2ncc3nc(N)nc(NCCCC)c32)c(OC)c1` [Compound 831], the EC50 turned out to be 104 nM.

For the compound `CCCCNc1nc(N)nc2cnn(Cc3ccc(Oc4ccc(CNCC(C)(C)O)cc4)cc3OC)c12` [Compound 857], the 50% effective concentration (EC50) was 11.5 nM.

In the case of `CCC[C@@H](CCO)Nc1nc(N)nc2cnn(Cc3ccc(CN4CC(OC)C4)cc3)c12` [Compound 877], the EC50 was determined as 190 nM. As to `CCC[C@H](CCO)Nc1nc(N)nc2cnn(Cc3ccc(CNC4CCC4)cc3OC)c12` [Compound 872], the EC50 came out at 32.7 nM. The result for `CCC[C@@H](CCO)Nc1nc(N)nc2cnn(Cc3ccc(CNC4CCC4)cc3)c12` [Compound 875] reads 58 nM; that for `CCC[C@@H](CCO)Nc1nc(N)nc2cnn(Cc3ccc(CNCc4ccncc4)cc3OC)c12` [Compound 837], 2.4 nM. The value for `CCCCNc1nc(N)nc2cnn(Cc3ccc(CNC4(CO)CCCC4)cc3OC)c12` [Compound 820] was 121 nM; that for `CCCCNc1nc(N)nc2cnn(Cc3ccc(CN4CCCC4)cc3OC)c12` [Compound 833] was 31.1 nM; that for `CCCCNc1nc(N)nc2cnn(Cc3ccc(CN4CC5CNCC5C4)cc3OC)c12` (centres unmarked) [Compound 812] was 102 nM.
